Data as given in patent US9567325B2, “Carboxamide compounds and their use as calpain inhibitors” (AbbVie Deutschland GmbH & Co. KG, priority 2009, dated 2017).

Key:
Type in all cases: biochemical
[1] = biological target: T1, cathepsin K activated from recombinant human procathepsin K (Homo sapiens, UniProt P43235); test: Cathepsin K enzyme inhibition in vitro, kinetic fluorescence assay (selectivity vs calpain); settings: ratio of Ki values; Z-Gly-Pro-Arg-AMC substrate, pH 6.0
T1 construct: purchased Calbiochem 342001; host or cells: E. coli
T1 sequence (P43235 115-329): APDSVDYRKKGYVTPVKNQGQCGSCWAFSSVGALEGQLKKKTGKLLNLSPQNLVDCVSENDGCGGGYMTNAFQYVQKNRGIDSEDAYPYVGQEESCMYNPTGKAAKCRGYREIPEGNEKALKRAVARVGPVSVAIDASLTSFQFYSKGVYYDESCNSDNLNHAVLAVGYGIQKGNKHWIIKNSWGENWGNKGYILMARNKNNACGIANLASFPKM
Procedure: (§1) The following solutions and buffers were employed: • HBS (for 40 ml): 800 μl 1M HEPES; 2.16 ml 100 mM KCl; 4.8 ml 1M NaCl; 3.59 ml 5% glucose; 60 μl 1M MgSO4; 400 μl 100 mM Na pyruvate, 28.19 ml water; pH 7.2-7.5. • lysis buffer (for 20 ml): 400 μl 1M Tris pH 8.2; 2.74 ml 1M NaCl; 520 μl 0.5M EDTA; 2 ml 10% triton X-100; 0.8 ml (=1:25) CompletePlus (1 tablet/2 ml H2O); 200 μl 100 mM Pefabloc; 13.34 ml water, pH 8.2. • TBST (10×) (for 11): 100 mM Tris (12.1 g); 1.5M NaCl (87 g); 1% Tween 20 (10 g), adjusted to pH 8. I Enzyme Inhibition In Vitro: • Testing for blockade of the corresponding enzymic activities was carried out by means of kinetic fluorescence assays (excitation 390 nm, emission 460 nm). • Apparent Ki values were calculated from the experimentally determined IC50 values by the Cheng-Prussoff relation assuming a reversible competitive enzyme inhibition. The Km values of the substrates used under the assay conditions indicated above were: 90 μM (Z-Phe-Arg-AMC, cathepsin B), 10 μM (Z-Gly-Pro-Arg-AMC, cathepsin K), 2 μM (Z-Phe-Arg-AMC, cathepsin L), and 30 μM (Z-Val-Val-Arg-AMC, cathepsin S). • The indicated Ki values are averages of the inhibition constants calculated on the basis of 2 to 4 independent dose-effect plots. • The following assays were used: • 1. Calpain I: • 20 nM calpain-1-isolated from human erythrocytes (Calbiochem #208713), 100 μM Suc-Leu-Tyr-AMC (Bachem #1-1355) as substrate in buffer with 62 mM imidazole, 0.3 mM CaCl2, 0.10% CHAPS, 0.05% BSA, 1 mM DTT at pH 7.3 and room temperature. • 2. Cathepsin B: • 0.25 nM cathepsin B—isolated from human liver (Calbiochem #219362), 100 μM Z-Phe-Arg-AMC (Bachem #1-1160) as substrate 50 mM MES, 2 mM EDTA, 0.05% Brij 35, 2.5 mM L-cysteine, pH 6.0, room temperature. • 3. Cathepsin K: • 3 nM cathepsin K-activated from recombinant human procathepsin K from E. coli (Calbiochem #342001), 10 μM Z-Gly-Pro-Arg-AMC (Biomol #P-142) as substrate in 50 mM MES, 2 mM EDTA, 0.05% Brij 35, 2.5 mM L-cysteine, pH 6.0, room temperature. • 4. Cathepsin L: • 1 nM cathepsin L—isolated from human liver (Calbiochem #219402), 2 μM Z-Phe-Arg-AMC (Bachem #1-1160) as substrate in 50 mM MES, 2 mM EDTA, 0.05% Brij 35, 2.5 mM L-cysteine, pH 6.0, room temperature. • 5. Cathepsin S: • 0.5 nM recombinant human cathepsin S from E. coli (Calbiochem #219343), 20 μM Z-Val-Val-Arg-AMC (Bachem #I-1540) as substrate in 50 mM MES, 2 mM EDTA, 0.05% Brij 35, 2.5 mM L-cysteine, pH 6.0, room temperature. • The results of the in vitro determination are indicated in Table 1. The following abbreviations are used in Table 1: • In the “Calpain activity” column, +++ stands for a calpain Ki (Ki(calpain)) of ≦40 nM, and ++ means: 40 nM<Ki(Calpain)≦100 nM and + means 100 nM<Ki(Calpain)≦300 nM. • The “Sel. cat. B” column indicates the Ki(cathepsin B)/Ki(calpain) ratio. In this connection, ++ means a Ki(cathepsin B)/Ki(calpain) ratio of ≧30 and + means 10≦Ki(cathepsin B)/Ki(calpain)<30. • The “Sel. cat. K” column indicates the Ki(cathepsin K)/Ki(calpain) ratio. In this connection, ++ means a Ki(cathepsin K)/Ki(calpain) ratio of ≧30 and + means 10≦Ki(cathepsin K)/Ki(calpain)<30. • The “Sel. cat. L” column indicates the Ki(cathepsin L)/Ki(calpain) ratio. In this connection, ++ means a Ki(cathepsin L)/Ki(calpain) ratio of ≧50 and + means 30≦Ki(cathepsin L)/Ki(calpain)<50. • The “Sel. cat. S” column indicates the Ki(cathepsin S)/Ki(calpain) ratio. In this connection, ++ means a Ki(cathepsin S)/Ki(calpain) ratio of ≧100 and + means 50≦Ki(cathepsin S)/Ki(calpain)<100.

[2] = biological target: T2, cathepsin L isolated from human liver (Homo sapiens, UniProt P07711); test: Cathepsin L enzyme inhibition in vitro, kinetic fluorescence assay (selectivity vs calpain); settings: ratio of Ki values; Z-Phe-Arg-AMC substrate, pH 6.0
T2 construct: 1 nM cathepsin L—isolated from human liver (Calbiochem #219402); purchased Calbiochem 219402; host or cells: human liver (natural source)
T2 sequence (P07711 114-333): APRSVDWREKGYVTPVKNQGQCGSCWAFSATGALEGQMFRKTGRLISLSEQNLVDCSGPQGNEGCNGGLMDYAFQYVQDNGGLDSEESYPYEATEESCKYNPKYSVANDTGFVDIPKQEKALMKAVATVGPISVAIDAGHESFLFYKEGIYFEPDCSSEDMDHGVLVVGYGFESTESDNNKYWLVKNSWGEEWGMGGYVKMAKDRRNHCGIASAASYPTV
Procedure: as §1

[3] = biological target: T3, cathepsin B isolated from human liver (Homo sapiens, UniProt P07858); test: Cathepsin B enzyme inhibition in vitro, kinetic fluorescence assay (selectivity vs calpain); settings: ratio of Ki values; Z-Phe-Arg-AMC substrate, pH 6.0
T3 construct: 0.25 nM cathepsin B—isolated from human liver (Calbiochem #219362); purchased Calbiochem 219362; host or cells: human liver (natural source)
Procedure: as §1

[4] = biological target: T4, recombinant human cathepsin S (Homo sapiens, UniProt P25774); test: Cathepsin S enzyme inhibition in vitro, kinetic fluorescence assay (selectivity vs calpain); settings: ratio of Ki values; Z-Val-Val-Arg-AMC substrate, pH 6.0
T4 construct: purchased Calbiochem 219343; host or cells: E. coli
T4 sequence (P25774 115-331): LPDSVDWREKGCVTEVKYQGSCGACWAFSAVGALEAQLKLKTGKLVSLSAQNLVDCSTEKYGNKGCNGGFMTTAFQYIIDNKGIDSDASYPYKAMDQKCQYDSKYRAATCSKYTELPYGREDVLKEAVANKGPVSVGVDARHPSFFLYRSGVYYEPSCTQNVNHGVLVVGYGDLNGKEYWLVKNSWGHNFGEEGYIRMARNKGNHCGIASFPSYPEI
Procedure: as §1

[5] = biological target: T5, calpain-1 isolated from human erythrocytes (Homo sapiens, UniProt P07384); test: Calpain I enzyme inhibition in vitro, kinetic fluorescence assay; settings: apparent Ki calculated from IC50 by Cheng-Prussoff; 100 μM Suc-Leu-Tyr-AMC, pH 7.3, room temperature
T5 construct: 20 nM calpain-1-isolated from human erythrocytes (Calbiochem #208713); purchased Calbiochem 208713; host or cells: human erythrocytes (natural source)
T5 sequence (P07384 1-714): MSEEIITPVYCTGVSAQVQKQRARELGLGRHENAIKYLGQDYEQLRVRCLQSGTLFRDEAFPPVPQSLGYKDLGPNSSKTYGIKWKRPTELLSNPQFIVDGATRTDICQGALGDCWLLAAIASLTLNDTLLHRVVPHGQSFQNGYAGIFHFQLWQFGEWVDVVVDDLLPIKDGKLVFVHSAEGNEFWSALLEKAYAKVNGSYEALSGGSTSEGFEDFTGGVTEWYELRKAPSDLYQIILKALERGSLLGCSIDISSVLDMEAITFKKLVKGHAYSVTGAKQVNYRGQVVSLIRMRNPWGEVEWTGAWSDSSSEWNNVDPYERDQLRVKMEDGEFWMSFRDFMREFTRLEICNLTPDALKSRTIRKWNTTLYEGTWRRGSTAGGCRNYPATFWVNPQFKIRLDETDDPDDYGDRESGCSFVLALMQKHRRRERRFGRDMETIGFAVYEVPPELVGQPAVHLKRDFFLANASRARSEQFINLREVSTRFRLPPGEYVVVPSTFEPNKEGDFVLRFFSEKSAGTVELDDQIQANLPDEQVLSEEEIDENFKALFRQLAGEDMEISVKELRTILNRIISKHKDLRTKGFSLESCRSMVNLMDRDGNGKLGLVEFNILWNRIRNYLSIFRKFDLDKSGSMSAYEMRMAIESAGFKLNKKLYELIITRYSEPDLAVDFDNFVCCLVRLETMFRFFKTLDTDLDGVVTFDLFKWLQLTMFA
T5 sequence (P04632 1-268 partner): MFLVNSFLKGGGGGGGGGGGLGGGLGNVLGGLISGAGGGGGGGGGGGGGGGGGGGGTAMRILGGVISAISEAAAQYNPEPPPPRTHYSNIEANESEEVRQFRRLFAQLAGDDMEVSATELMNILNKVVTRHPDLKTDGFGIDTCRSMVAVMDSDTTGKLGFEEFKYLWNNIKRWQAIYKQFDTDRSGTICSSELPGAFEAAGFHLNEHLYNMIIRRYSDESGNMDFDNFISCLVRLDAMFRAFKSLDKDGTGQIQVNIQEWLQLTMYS
Procedure: as §1

NC(=O)C(=O)C(Cc1ccccc1)NC(=O)c1cccnc1-c1csc(-c2ccccc2)n1 (stereo not drawn) [Example 7, N-(4-Amino-3,4-dioxo-1-phenylbutan-2-yl)-2-(2-phenyl-1,3-thiazol-4-yl)pyridine-3-carboxamide]
Sel cat. K (Ki(cathepsin K)/Ki(calpain) ratio) [1]: + (+ means 10≦Ki(cathepsin K)/Ki(calpain)<30) | Sel cat. L (Ki(cathepsin L)/Ki(calpain) ratio) [2]: ++ (++ means a Ki(cathepsin L)/Ki(calpain) ratio of ≧50) | Sel cat. B (Ki(cathepsin B)/Ki(calpain) ratio) [3]: ++ (++ means a Ki(cathepsin B)/Ki(calpain) ratio of ≧30) | Sel cat. S (Ki(cathepsin S)/Ki(calpain) ratio) [4]: ++ (++ means a Ki(cathepsin S)/Ki(calpain) ratio of ≧100) | Ki [5]: ≤ 0.04 µM

NC(=O)C(=O)C(Cc1ccccc1)NC(=O)c1cccnc1-c1csc(-c2ccccc2Cl)n1 (stereo not drawn) [Example 8, N-(4-Amino-3,4-dioxo-1-phenylbutan-2-yl)-2-[2-(2-chlorophenyl)-1,3-thiazol-4-yl]pyridine-3-carboxamide]
Sel cat. K (Ki(cathepsin K)/Ki(calpain) ratio) [1]: + (+ means 10≦Ki(cathepsin K)/Ki(calpain)<30) | Sel cat. L (Ki(cathepsin L)/Ki(calpain) ratio) [2]: ++ (++ means a Ki(cathepsin L)/Ki(calpain) ratio of ≧50) | Sel cat. B (Ki(cathepsin B)/Ki(calpain) ratio) [3]: ++ (++ means a Ki(cathepsin B)/Ki(calpain) ratio of ≧30) | Sel cat. S (Ki(cathepsin S)/Ki(calpain) ratio) [4]: ++ (++ means a Ki(cathepsin S)/Ki(calpain) ratio of ≧100) | Ki [5]: ≤ 0.04 µM

NC(=O)C(=O)C(Cc1ccccc1)NC(=O)c1cccnc1-c1csc(-c2ccc3ccccc3c2)n1 (stereo not drawn) [Example 9, N-(4-Amino-3,4-dioxo-1-phenylbutan-2-yl)-2-[2-(naphthalen-2-yl)-1,3-thiazol-4-yl]pyridine-3-carboxamide]
Sel cat. K (Ki(cathepsin K)/Ki(calpain) ratio) [1]: + (+ means 10≦Ki(cathepsin K)/Ki(calpain)<30) | Sel cat. L (Ki(cathepsin L)/Ki(calpain) ratio) [2]: ++ (++ means a Ki(cathepsin L)/Ki(calpain) ratio of ≧50) | Sel cat. B (Ki(cathepsin B)/Ki(calpain) ratio) [3]: ++ (++ means a Ki(cathepsin B)/Ki(calpain) ratio of ≧30) | Sel cat. S (Ki(cathepsin S)/Ki(calpain) ratio) [4]: ++ (++ means a Ki(cathepsin S)/Ki(calpain) ratio of ≧100) | Ki [5]: 0.04 to 0.1 µM

NC(=O)C(=O)C(Cc1ccccc1)NC(=O)c1cccnc1-c1csc(-c2ccc(F)cc2)n1 (stereo not drawn) [Example 5, N-(4-Amino-3,4-dioxo-1-phenylbutan-2-yl)-2-[2-(4-fluorophenyl)-1,3-thiazol-4-yl]pyridine-3-carboxamide]
Sel cat. L (Ki(cathepsin L)/Ki(calpain) ratio) [2]: + (+ means 30≦Ki(cathepsin L)/Ki(calpain)<50) | Sel cat. B (Ki(cathepsin B)/Ki(calpain) ratio) [3]: + (+ means 10≦Ki(cathepsin B)/Ki(calpain)<30) | Sel cat. S (Ki(cathepsin S)/Ki(calpain) ratio) [4]: ++ (++ means a Ki(cathepsin S)/Ki(calpain) ratio of ≧100) | Ki [5]: 0.04 to 0.1 µM

NC(=O)C(=O)C(Cc1ccccc1)NC(=O)c1cccnc1-c1nc2ccccc2o1 (stereo not drawn) [Example 16, N-(4-amino-3,4-dioxo-1-phenylbutan-2-yl)-2-(benzo[d]oxazol-2-yl)nicotinamide]
Sel cat. K (Ki(cathepsin K)/Ki(calpain) ratio) [1]: + (+ means 10≦Ki(cathepsin K)/Ki(calpain)<30) | Sel cat. B (Ki(cathepsin B)/Ki(calpain) ratio) [3]: + (+ means 10≦Ki(cathepsin B)/Ki(calpain)<30) | Sel cat. S (Ki(cathepsin S)/Ki(calpain) ratio) [4]: ++ (++ means a Ki(cathepsin S)/Ki(calpain) ratio of ≧100) | Ki [5]: 0.1 to 0.3 µM

NC(=O)C(=O)C(Cc1ccccc1)NC(=O)c1cccnc1-c1nc2ccccc2s1 (stereo not drawn) [Example 3, N-(4-Amino-3,4-dioxo-1-phenylbutan-2-yl)-2-(1,3-benzothiazol-2-yl)pyridine-3-carboxamide]
Sel cat. K (Ki(cathepsin K)/Ki(calpain) ratio) [1]: + (+ means 10≦Ki(cathepsin K)/Ki(calpain)<30) | Sel cat. L (Ki(cathepsin L)/Ki(calpain) ratio) [2]: ++ (++ means a Ki(cathepsin L)/Ki(calpain) ratio of ≧50) | Sel cat. B (Ki(cathepsin B)/Ki(calpain) ratio) [3]: + (+ means 10≦Ki(cathepsin B)/Ki(calpain)<30) | Sel cat. S (Ki(cathepsin S)/Ki(calpain) ratio) [4]: ++ (++ means a Ki(cathepsin S)/Ki(calpain) ratio of ≧100) | Ki [5]: 0.04 to 0.1 µM

NC(=O)C(=O)C(Cc1ccccc1)NC(=O)c1cccnc1-c1ncc(-c2ccccc2)[nH]1 (stereo not drawn) [Example 2, N-(4-Amino-3,4-dioxo-1-phenylbutan-2-yl)-2-(5-phenyl-1H-imidazol-2-yl)pyridine-3-carboxamide]
Sel cat. K (Ki(cathepsin K)/Ki(calpain) ratio) [1]: + (+ means 10≦Ki(cathepsin K)/Ki(calpain)<30) | Ki [5]: 0.1 to 0.3 µM
